Among the data in BigSolDB 2.1 are solubility (mole fraction) values, retold here.

The conditions of the data set: in n-hexane.

In the case of `Fc1ccc(N=C2[Se]CC3CCCN2C3)cc1` (stereo not given), the solubility (mole fraction) (commonly the moles of solute divided by all moles in the saturated solution) by setting is: (293.15 K) 0.00115; (298.15 K) 0.00121; (303.15 K) 0.00128; (308.15 K) 0.00134; (313.15 K) 0.00143.
`CC(C)c1ccc(N=C2[Se]CC3CCCN2C3)cc1` (stereo not given) registered a solubility (mole fraction) (293.15 K) of 0.000481; a solubility (mole fraction) (298.15 K) of 0.00056; a solubility (mole fraction) (303.15 K) of 0.000643; a solubility (mole fraction) (308.15 K) of 0.000725; a solubility (mole fraction) (313.15 K) of 0.000819.
Turning to `Cc1ccc(N=C2[Se]CC3CCCN2C3)cc1Cl` (stereo not given), the solubility (mole fraction) came to 0.000536 (293.15 K); 0.000551 (298.15 K); 0.000567 (303.15 K); 0.000581 (308.15 K); 0.000595 (313.15 K).
